# Results taken from patent US10858305B2, “Perillyl alcohol-3-bromopyruvate conjugate and methods of treating cancer” (NeOnc Technologies, Inc., priority 2016, dated 2020).
# “Also recorded” adds a separate entry of the source.
# Experiments:
# [1] = test system: HCT116 colon cancer cells; experiment: Cellular ATP content assay; type: cell-based, human; details: HCT116; 3 hours (FIG. 9) or 3 and 6 hours at 40 μM (FIG. 22)
# Method: HCT116 cells were treated with 40 μM 3-BP or NEO218. As a point of reference, cells were also exposed to 100 nM rotenone in glucose-free medium. ATP levels were determined after 3 and 6 hours. ATP levels in untreated cells were set at 100% (corresponding to 26.6 nmol per one million cells).
# HCT116 colon cancer cells were treated cells with: NEO218, 3-BP; rotenone (a mitochondrial poison that blocks the respiratory chain); medium without glucose (“no gluc”; in order to shut down glycolysis); and, rotenone in combination with absent glucose (to cease all intracellular ATP production). After 3 hours of treatment, a commercially available ATP detection assay kit was employed to determine the relative levels of ATP present.
# ATP content of cells was measured with the ATP Colorimetric/Fluorometric Assay kit (Biovision Inc., Milpitas, Calif.), which utilizes the phosphorylation of glycerol to generate a product that is quantified by colorimetry at 570 nm. Approximately 1×10^6 cells were cultured in 10-cm tissue culture plates, exposed to drug treatment for various time periods, and then processed as per manufacturer's instructions. All ATP levels were normalized to untreated controls and presented as percentage of controls.
# [2] = test system: tumor cells; experiment: Cytotoxicity in the presence of necroptosis inhibitor necrostatin-1; type: cell-based; details: data not shown
# From the text: All our data are highly consistent and point to necrosis as the overwhelmingly dominant mechanism of cell death by both 3-BP and NEO218 in our cell systems, as supported by the following observations: (i) A pan-caspase inhibitor exerted no influence on the cytotoxic IC50 of 3-BP or NEO218 (FIG. 21C). (ii) Several established protein markers of apoptosis show very little, if any, response to drug treatment (FIG. 21B). (iii) Loss of structural integrity of the plasma membrane is a hallmark of necrosis and can be documented via cellular uptake of membrane-impermeant dyes (such as propidium iodide, PI) or cellular leakage of cytosolic enzymes (such as lactate dehydrogenase, LDH). […] The loss of plasma membrane integrity is consistent with cell death induced by the severe ATP depletion observed by us (FIG. 22) and reported by others, because maintenance of the cytoplasmic transmembrane electrochemical gradients is highly energy dependent, and their loss inevitably leads to cell swelling and membrane rupture (i.e., necrosis). (iv) Rapid cell death is another characteristic of necrotic cell death. We detected PI positivity and LDH release within the first 2 hours of drug exposure (see FIG. 21A for PI; time course not shown for LDH). […] Cells were treated with 3-BP or NEO218 in the presence of necrostatin-1 (Nec-1), a commonly used inhibitor of necroptosis.
# [3] = test system: HCT116 colon cancer cells; experiment: MTT assay with pan-caspase inhibitor zVAD pre-treatment; type: cell-based, human; details: 50 μM zVAD 1 hour before drug, MTT after 24 hours
# Method: (A) FACS analysis of HCT116 cells after treatment for 2, 4, or 8 hours with vehicle, 30 μM 3-BP, 30 μM NEO218, or 1 μM staurosporine (STS). […] (B) Western blot analysis of apoptotic markers. In the top section, MDA-MB-231 cells were treated with 30 μM NEO218 or 1 μM STS for various time points. In the lower section, HCT116 cells were treated with the indicated concentrations of 3-BP, NEO218, or STS for 16 hours. In all cases cell lysates were prepared and analyzed for the well-established apoptotic markers cleaved PARP, cleaved (i.e., activated) caspase 7 (cl. C-7), and phosphorylated (i.e., active) H2AX. Actin was used as a loading control. (C) HCT116 cells were pretreated with 50 μM Z-VAD-FMK for one hour, followed by the addition of increasing concentrations of 3-BP or NEO218. Cell viability was determined by MTT assay 24 hours later. Data points are averages from n=3.
# The capacity for NEO218 to induce apoptosis was further evaluated in a series of experiments using an MTT assay. The apoptosis-blocker zVAD (z-VAD-FMK), an agent that acts as a pan-caspase inhibitor, was used. HCT116 colon cancer cells were treated for 1 hour with or without 50 μM zVAD, followed by increasing concentrations of NEO218 or 3-BP. Twenty-four hours thereafter, cell viability was determined by MTT assay.
# [4] = test system: HCT116 cells; experiment: MTT assay with or without antioxidants NAC or GSH; type: cell-based, human; details: HCT116, MTT after 24 hours
# Method: (§1) (A) HCT116 cells were treated with 40 μM 3-BP or NEO218 in the presence or absence of 1 mM NAC, 1 mM GSH, or 50 mM methyl-pyruvate (or sodium pyruvate, which produced similar outcomes). Cell viability was determined 24 hours later by MTT assay. (B) HCT116 cells were treated with 30 or 100 μM 3-BP or NEO218. After 30 minutes, cell lysates were prepared and analyzed for GAPDH activity. (C) Lysates from non-drug-treated MDA-MB-231 cells were mixed with 3-BP or NEO218 in the presence or absence of NAC or GSH at the concentrations mentioned in A. After 1 hour of incubation, GAPDH activity was determined. GAPDH activity in the absence of drug treatment was set at 100% (corresponding to 0.06 units/min×10^6 cells).
# Tumor cells were treated with either NAC or GSH, in combination with NEO218 or 3-BP. HCT116 cells were treated with increasing concentrations of NEO218 and 3-BP (individually), in the presence or absence of 5 mM NAC or 1 mM GSH. After 24 hours, cell viability was determined by MTT assay.
# [5] = test system: HCT116 cells; experiment: MTT assay with or without supplemental pyruvate; type: cell-based, human; details: HCT116, MTT after 24 hours
# Method: as §1
# To test this hypothesis, HCT116 cells were treated with increasing concentrations of NEO218 and 3-BP (individually) in the presence or absence of 10 mM pyruvate. Viability of cells was determined 24 hours later by MTT cell viability assay.
# [6] = test system: HCT116 cells; experiment: Colony formation assay in HCT116 cells; type: cell-based, human; details: for IC50: Homo sapiens, HCT-116, HCT116, 48 hours drug then 10-14 days, read-out: half-maximal effect, CFA
# Method: (A) MTT assay was performed after 24 hours. […] (B) LDH assay was performed after […]. LDH release by untreated cells was set to 1. Relative fold increase is shown (n=3).
# Depending on the cell line (and plating efficiency), 250-800 cells were seeded into each well of a 6-well plate and treated as described in detail previously. After 12-16 days, colonies (defined as groups of >50 cells) were visualized by staining for 4 hours with 1% methylene blue (in methanol), and then were-counted. Experiments were repeated at least once, but usually more often under different conditions.
compound,measurement,setting,value
"O=C(O)C(=O)CBr [3-BP, 3-bromopyruvate]",depletion of cellular ATP pools,[1],nearly identical outcomes; also recorded: potently depletes the levels of cellular ATP pools
same,effect of necrostatin-1 on drug-induced cytotoxic outcome,[2],no impact of Nec-1 on drug-induced cytotoxic outcome could be detected
same,effect of zVAD pre-treatment on drug-induced cell death,[3],did not affect the cytotoxic IC50; also recorded: did not prevent induction of cell death
same,effect of antioxidants NAC or GSH on drug-induced cell death,[4],profound protection; also recorded: drug-induced cell death was completely prevented
same,effect of supplemental pyruvate on drug-induced cell death,[5],profound protection; also recorded: excess pyruvate was able to completely prevent cell death
same,block of colony formation in CFA,"[6]; HCT116, 40 μM",99%
same,IC50,[6],~3 µM
"C=C(C)[C@@H]1CC=C(COC(=O)C(=O)CBr)CC1 [NEO218, 3-bromo-2-oxo-propionic acid 4-isopropenyl-cyclohex-1-enylmethyl ester]",depletion of cellular ATP pools,[1],nearly identical outcomes; also recorded: potently depletes the levels of cellular ATP pools
same,effect of necrostatin-1 on drug-induced cytotoxic outcome,[2],no impact of Nec-1 on drug-induced cytotoxic outcome could be detected
same,effect of zVAD pre-treatment on drug-induced cell death,[3],did not affect the cytotoxic IC50; also recorded: did not prevent induction of cell death
same,effect of antioxidants NAC or GSH on drug-induced cell death,[4],antioxidant treatment similarly protected cells; also recorded: drug-induced cell death was completely prevented
same,effect of supplemental pyruvate on drug-induced cell death,[5],no protection at all when pyruvate was added; also recorded: pyruvate had no effect on viability at all
same,IC50,[6],~3 µM
